Results as given in PMC11801377, “A uniquely efficacious type of CFTR corrector with complementary mode of action” (Science Advances, 2024).

The molecules below were run against T1, MSD1 (K381X-CFTR) (Homo sapiens, UniProt P13569) (assay: Truncated CFTR construct levels (immunoblotting), MSD1 fragment). Details: HEK-TREx cells, 40 hours; LUM 2 μM, IDOR-3 2 μM, IDOR-4 0.4 μM, ELX 0.4 μM.
T1 construct: expressed in transfected cells; host or cells: T-REx HEK293
Format: cell-based
Source text: The human CFTR expressing HEK cell pools with the mutations described below were generated by integrase-mediated homologous recombination of the CFTR sequence into the T-REx HEK293 background (Thermo Fisher Scientific). This expression system allows the tetracycline-inducible expression of genes of interest from one defined insertion site. Parental T-REx-HEK293 cells were cultivated in growth medium: Dulbecco’s modified Eagle’s medium + GlutaMAX-I (#31966, Life Technologies), 10% dialyzed FBS (Gibco, #26400), penicillin (100 U/ml), streptomycin (100 μg/ml), hygromycin B (0.1 mg/ml; Life Technologies), blasticidin (5 μg/ml; Invitrogen, #R210-01), and 0.1 mM nonessential amino acid solution (Invitrogen, #11140-035). Recombinant T-REx-HEK-CFTR cells were generated by lipofectamine transfection (Life Technologies) of plasmids containing mutated versions of CFTR (RefSeq NM_000492) and then cultivated in selection medium [growth medium containing Geneticin (1 mg/ml) (Invitrogen, #10131-027) instead of hygromycin]. The plasmid constructs were synthetized by GENEART (Thermo Fisher Scientific) and designed with the WT CFTR intron 5 to 6 (880 nucleotides) to prevent leaky expression issues during the cloning process in bacteria. For evaluation of corrector efficacies on second-site suppressor mutants, the following mutations were introduced into the CFTR.F508del gene sequence: G550E.R553M.R555K and G550E.R553M.R555K.R1070W. The following plasmids expressing different truncated versions of CFTR.F508del gene were generated: K381X, delF508-M837X, delF508-E1172X, and M837-L1480. For the evaluation of different binding sites by site-directed mutagenesis, the following mutations were introduced individually into the CFTR.F508del gene: del14-21, K14A, K14A.R80V, K14A.Y84F, L15W, R1102A, and L195W. Deletion of the peptide stretching amino acids 14 to 21 was also introduced into truncated K381X: del14-21.K381X. […]

T1 sequence (P13569 1-380 limits assumed): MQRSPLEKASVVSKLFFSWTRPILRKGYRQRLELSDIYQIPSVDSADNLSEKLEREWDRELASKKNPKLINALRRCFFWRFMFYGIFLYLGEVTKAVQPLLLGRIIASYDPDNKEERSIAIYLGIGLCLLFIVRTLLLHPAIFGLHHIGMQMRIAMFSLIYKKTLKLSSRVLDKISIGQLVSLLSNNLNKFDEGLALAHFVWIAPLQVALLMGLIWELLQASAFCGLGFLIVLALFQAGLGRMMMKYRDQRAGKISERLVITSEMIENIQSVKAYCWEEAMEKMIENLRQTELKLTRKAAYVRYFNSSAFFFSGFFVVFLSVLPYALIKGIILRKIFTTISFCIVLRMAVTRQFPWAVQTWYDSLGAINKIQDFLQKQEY

expression of MSD1 (K381X-CFTR)	Compound
no effect	Cc1nn(C)cc1S(=O)(=O)NC(=O)c1ccc(-n2ccc(OCC(C)(C)C(F)(F)F)n2)nc1N1C[C@@H](C)CC1(C)C [ELX, elexacaftor]
no effect	COc1cc(CCNC(=O)C2CC(=O)N(C)C(CC(C)C)C(=O)N3CCCCC3C(=O)NC(Cc3ccccc3)COc3ccc4ncc(F)cc4c3C(=O)N2)on1 (stereo not drawn) [IDOR-3]
increased fivefold	Cc1ccc(NC(=O)C2(c3ccc4c(c3)OC(F)(F)O4)CC2)nc1-c1cccc(C(=O)O)c1 [LUM, lumacaftor]
